What is called IC50 is the point on the concentration scale where inhibition reaches its midpoint.

Where a name gives a salt, the structure may show the parent alone. Read-outs that look alike come from different tables or passages of the source. Bounds are passed on as bounds.

The target in one data set is T1, rat dorsal aorta (Rattus norvegicus, UniProt P22002).
T1 construct: from tissue; host or cells: rat dorsal aorta (smooth muscle)
The experiment in a line: Calcium blockade in rat dorsal aorta (calcium activity in smooth muscle). It counts as cell-based. The settings on record: for Calcium (pA2): negative logarithm of molar concentration giving dose ratio of 2; for Kb: negative logarithm of molar concentration giving dose ratio of 2, read-out: Calcium (pA2) (converted). As for the experimental part: (§1) Evaluation of these pharmacological properties was affected by means of both in vitro and in vivo biological screens. In vitro screening included calcium activity in various smooth muscle systems such as rat dorsal aorta, portal vein, and trachea; effects on blood platelets, β-binding affinities which were determined in rat heart and lung. […] The in vivo testing included vasodilating results in the ganglion-blocked, angiotensin-II supported rat and antihypertensive screening in the spontaneous hypertensive rat (SHR) or DOCA salt rats.

The next data set has as its target T2, β-Receptor (Rattus norvegicus, UniProt P18090).
T2 construct: from tissue; host or cells: rat heart
The experiment in a line: β-Receptor binding in animal heart tissue. As for the experimental part: as §1

In data set [1] the test system is mean arterial blood pressure, ganglion-blocked, angiotensin-II supported rat. The experiment in a line: Vasodilation in the angiotensin-supported ganglion-blocked rat. Format: in vivo. As for the experimental part:
as §1

[2] abbreviates: animal heart tissue, read-out: β Binding (IC50).
Setting [3] is: Rattus norvegicus, 0.5 h, 30 minutes after dosing, read-out: Vasodilation, % reduction in mean arterial blood pressure.

T1 sequence (P22002 whole entry): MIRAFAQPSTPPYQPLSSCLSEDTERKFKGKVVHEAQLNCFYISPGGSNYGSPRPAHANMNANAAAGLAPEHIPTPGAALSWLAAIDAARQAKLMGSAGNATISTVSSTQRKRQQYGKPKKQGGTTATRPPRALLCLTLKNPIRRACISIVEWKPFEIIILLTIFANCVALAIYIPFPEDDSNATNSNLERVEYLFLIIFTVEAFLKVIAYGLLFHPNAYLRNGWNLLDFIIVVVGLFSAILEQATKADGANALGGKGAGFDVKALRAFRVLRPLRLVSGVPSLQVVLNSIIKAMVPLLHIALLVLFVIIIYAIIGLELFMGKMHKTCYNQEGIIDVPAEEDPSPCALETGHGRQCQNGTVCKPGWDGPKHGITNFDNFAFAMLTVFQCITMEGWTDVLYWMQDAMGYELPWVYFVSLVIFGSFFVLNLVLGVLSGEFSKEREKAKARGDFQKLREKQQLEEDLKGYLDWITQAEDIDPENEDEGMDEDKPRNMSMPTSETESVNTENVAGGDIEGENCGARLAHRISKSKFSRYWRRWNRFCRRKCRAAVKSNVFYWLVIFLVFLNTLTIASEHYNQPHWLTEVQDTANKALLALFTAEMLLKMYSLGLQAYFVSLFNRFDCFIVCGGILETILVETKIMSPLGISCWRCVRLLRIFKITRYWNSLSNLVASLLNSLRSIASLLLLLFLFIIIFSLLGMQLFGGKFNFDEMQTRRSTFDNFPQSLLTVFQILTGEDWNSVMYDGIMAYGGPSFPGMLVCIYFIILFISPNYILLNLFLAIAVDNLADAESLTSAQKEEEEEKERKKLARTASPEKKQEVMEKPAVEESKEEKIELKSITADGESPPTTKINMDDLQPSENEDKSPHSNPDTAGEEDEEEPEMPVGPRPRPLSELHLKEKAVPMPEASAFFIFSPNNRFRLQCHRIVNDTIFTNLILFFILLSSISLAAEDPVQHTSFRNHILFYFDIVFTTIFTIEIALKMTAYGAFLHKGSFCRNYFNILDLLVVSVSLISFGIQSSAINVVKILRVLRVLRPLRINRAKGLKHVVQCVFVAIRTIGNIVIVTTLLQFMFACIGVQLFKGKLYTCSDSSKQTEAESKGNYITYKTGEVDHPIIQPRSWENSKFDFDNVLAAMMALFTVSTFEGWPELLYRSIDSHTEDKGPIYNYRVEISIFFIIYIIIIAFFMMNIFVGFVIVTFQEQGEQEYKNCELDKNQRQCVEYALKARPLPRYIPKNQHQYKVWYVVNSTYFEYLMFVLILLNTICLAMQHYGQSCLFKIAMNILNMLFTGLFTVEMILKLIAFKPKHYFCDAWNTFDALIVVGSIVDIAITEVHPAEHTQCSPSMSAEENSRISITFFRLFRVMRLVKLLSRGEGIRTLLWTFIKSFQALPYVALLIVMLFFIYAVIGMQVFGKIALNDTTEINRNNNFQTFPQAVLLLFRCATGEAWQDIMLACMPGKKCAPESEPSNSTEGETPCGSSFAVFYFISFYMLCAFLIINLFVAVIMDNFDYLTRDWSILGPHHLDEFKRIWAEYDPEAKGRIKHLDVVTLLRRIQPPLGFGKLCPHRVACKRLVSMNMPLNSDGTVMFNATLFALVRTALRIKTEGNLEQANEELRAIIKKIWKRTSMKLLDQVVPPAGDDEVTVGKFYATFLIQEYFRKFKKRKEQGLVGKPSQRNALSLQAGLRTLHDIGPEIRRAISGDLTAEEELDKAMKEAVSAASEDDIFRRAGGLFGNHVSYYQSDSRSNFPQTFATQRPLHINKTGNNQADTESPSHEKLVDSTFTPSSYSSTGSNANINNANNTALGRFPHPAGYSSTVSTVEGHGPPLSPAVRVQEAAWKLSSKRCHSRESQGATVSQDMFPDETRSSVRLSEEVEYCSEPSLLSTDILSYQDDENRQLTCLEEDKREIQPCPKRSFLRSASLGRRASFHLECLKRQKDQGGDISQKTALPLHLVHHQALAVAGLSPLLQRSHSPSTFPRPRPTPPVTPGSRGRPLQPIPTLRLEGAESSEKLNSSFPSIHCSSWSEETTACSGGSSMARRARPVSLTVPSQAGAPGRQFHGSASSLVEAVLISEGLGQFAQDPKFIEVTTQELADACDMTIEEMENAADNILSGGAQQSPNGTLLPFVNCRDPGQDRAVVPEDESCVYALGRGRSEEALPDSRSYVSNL
T1 sequence (P54290 25-944 partner limits assumed): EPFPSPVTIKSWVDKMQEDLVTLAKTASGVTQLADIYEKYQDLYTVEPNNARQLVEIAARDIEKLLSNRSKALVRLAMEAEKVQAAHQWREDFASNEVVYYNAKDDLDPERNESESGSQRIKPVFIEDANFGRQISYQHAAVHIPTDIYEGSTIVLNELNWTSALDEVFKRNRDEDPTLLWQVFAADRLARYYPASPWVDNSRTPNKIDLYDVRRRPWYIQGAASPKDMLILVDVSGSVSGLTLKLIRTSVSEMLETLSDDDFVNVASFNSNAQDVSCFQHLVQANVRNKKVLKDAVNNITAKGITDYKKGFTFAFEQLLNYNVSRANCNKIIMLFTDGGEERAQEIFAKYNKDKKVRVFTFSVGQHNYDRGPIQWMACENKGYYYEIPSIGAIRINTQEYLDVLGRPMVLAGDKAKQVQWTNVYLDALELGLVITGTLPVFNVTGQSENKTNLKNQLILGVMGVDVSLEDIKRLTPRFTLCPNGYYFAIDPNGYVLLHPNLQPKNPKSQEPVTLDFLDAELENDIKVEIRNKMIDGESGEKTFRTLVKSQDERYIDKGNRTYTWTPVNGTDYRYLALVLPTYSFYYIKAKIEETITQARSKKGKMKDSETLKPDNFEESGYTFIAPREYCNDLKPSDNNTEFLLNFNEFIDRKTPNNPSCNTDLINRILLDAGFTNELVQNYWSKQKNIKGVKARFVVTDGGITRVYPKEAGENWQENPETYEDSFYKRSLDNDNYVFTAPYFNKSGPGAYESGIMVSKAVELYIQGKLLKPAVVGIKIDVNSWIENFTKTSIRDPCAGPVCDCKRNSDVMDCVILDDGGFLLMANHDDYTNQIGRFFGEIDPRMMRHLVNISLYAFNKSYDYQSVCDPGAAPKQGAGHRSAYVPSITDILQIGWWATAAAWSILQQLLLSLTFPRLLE
T1 sequence (P54290 945-1091 partner limits assumed): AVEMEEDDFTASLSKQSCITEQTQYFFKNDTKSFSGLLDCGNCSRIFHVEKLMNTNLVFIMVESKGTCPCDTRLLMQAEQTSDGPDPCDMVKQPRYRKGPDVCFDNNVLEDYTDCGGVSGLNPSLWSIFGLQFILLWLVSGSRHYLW
T2 sequence (P18090 whole entry): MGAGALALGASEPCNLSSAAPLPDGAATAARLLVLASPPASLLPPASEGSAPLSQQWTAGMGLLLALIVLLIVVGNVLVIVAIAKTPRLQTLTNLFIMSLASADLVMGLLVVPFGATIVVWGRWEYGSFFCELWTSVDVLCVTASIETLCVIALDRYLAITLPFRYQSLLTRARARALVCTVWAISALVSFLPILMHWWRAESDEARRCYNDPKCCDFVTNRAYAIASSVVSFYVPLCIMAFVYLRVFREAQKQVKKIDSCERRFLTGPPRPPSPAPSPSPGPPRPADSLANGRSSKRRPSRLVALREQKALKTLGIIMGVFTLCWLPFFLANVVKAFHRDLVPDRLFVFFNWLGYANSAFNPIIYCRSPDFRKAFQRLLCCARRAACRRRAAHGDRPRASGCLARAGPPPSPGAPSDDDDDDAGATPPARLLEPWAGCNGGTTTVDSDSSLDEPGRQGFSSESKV

As for `COC(=O)C1=C(C)NC(C)=C(C(=O)OCCCNCC(O)COc2cccc3c2C[C@H](O)[C@H](O)C3)C1c1cccc([N+](=O)[O-])c1` (relative stereo) [Example 64], at rat dorsal aorta, the “Calcium (pA2)” value stood at 7.3.
With `COC(=O)C1=C(C)NC(C)=C(C(=O)OCC(C)(C)NCC(O)COc2ccccc2C#N)C1c1cccc([N+](=O)[O-])c1` (stereo not drawn) [Example 29], the half-inhibitory concentration (IC50) on β-Receptor (setting [2]) was found to be 20 nM. Besides, in data set [1] (setting [3]), the inhibition in vivo at 1 mg/kg is 52%. Besides, the Kb at rat dorsal aorta was 6.31 nM.
For `CCC1=C(C(=O)OCC(C)(C)NCC(O)COc2ccccc2C#N)C(c2cccc([N+](=O)[O-])c2)C(C(=O)OC)=C(C)N1` (stereo not drawn) [Example 30] the same measures were 200 nM, 50% and 3.98 nM.
Regarding `COC(=O)C1=C(C)NC(C(C)C)=C(C(=O)OCC(C)(C)NCC(O)COc2ccccc2C#N)C1c1cccc([N+](=O)[O-])c1` (stereo not drawn) [Example 31], at β-Receptor (setting [2]), the IC50 stood at 800 nM. The inhibition in vivo at 1 mg/kg in data set [1] (setting [3]) worked out at 9%.
On to `COC(=O)C1=C(C)NC(c2ccccc2)=C(C(=O)OCC(C)(C)NCC(O)COc2ccccc2C#N)C1c1cccc([N+](=O)[O-])c1` (stereo not drawn) [Example 32], for which the IC50 at β-Receptor (setting [2]) stood at 300 nM. In data set [1] (Rattus norvegicus, 0.5 h, 30 minutes after dosing, at 10 mg/kg, read-out: Vasodilation, % reduction in mean arterial blood pressure), the inhibition in vivo at 10 mg/kg is 22%.
In the case of `COC(=O)C1=C(C)NC(c2cccs2)=C(C(=O)OCC(C)(C)NCC(O)COc2ccccc2C#N)C1c1cccc([N+](=O)[O-])c1` (stereo not drawn) [Example 33], the IC50 on β-Receptor (setting [2]) is 70 nM. Besides, in data set [1] (setting [3]), the inhibition in vivo at 1 mg/kg stood at 12%.
For the compound `CCC1=C(C(=O)OCCNCC(O)COc2ccccc2C#N)C(c2cccc([N+](=O)[O-])c2)C(C(=O)OC)=C(C)N1` (stereo not drawn) [Example 34], the IC50 on β-Receptor (setting [2]) is 6000 nM. In addition, in data set [1] (setting [3]), the inhibition in vivo at 1 mg/kg stood at 17%. Also, the Kb on rat dorsal aorta was 12.6 nM.
On to `CCC1=C(C(=O)OCCCNCC(O)COc2ccccc2C#N)C(c2cccc([N+](=O)[O-])c2)C(C(=O)OC)=C(C)N1` (stereo not drawn) [Example 35], for which the IC50 at β-Receptor (setting [2]) was 200 nM. For the same compound, the inhibition in vivo at 1 mg/kg in data set [1] (setting [3]) was 28%.
For the compound `CCC1=C(C(=O)OCC(C)(C)NCC(O)COc2ccccc2C)C(c2cccc([N+](=O)[O-])c2)C(C(=O)OC)=C(C)N1` (stereo not drawn) [Example 37], the inhibition in vivo at 1 mg/kg in data set [1] (setting [3]) came to 58%.
`CCC1=C(C(=O)OCC(C)(C)NCC(O)COc2ccccc2Br)C(c2cccc([N+](=O)[O-])c2)C(C(=O)OC)=C(C)N1` (stereo not drawn) [Example 38]: the IC50 on β-Receptor (setting [2]) came to 180 nM. The inhibition in vivo at 1 mg/kg in data set [1] (setting [3]) worked out at 55%.
For `CCC1=C(C(=O)OCC(C)(C)NCC(O)COc2ccc(CCOC)cc2)C(c2cccc([N+](=O)[O-])c2)C(C(=O)OC)=C(C)N1` (stereo not drawn) [Example 39], the IC50 on β-Receptor (setting [2]) was 400 nM. Also, the inhibition in vivo at 1 mg/kg in data set [1] (setting [3]) stood at 54%. For the same compound, the Kb at rat dorsal aorta was 1.58 nM.
Regarding `CCOC(=O)C1=C(C)NC(C)=C(C(=O)OCCCNCC(O)COc2ccccc2C)C1c1cccc([N+](=O)[O-])c1` (stereo not drawn) [Example 40], the inhibition in vivo at 1 mg/kg in data set [1] (setting [3]) came out at 36%. Also, at rat dorsal aorta, the Kb was 20 nM.
For `COC(=O)C1=C(C)NC(C)=C(C(=O)OCCCNCC(O)COc2cccc(C)c2)C1c1cccc([N+](=O)[O-])c1` (stereo not drawn) [Example 41], in that order: 28% and 6.31 nM.
With `COC(=O)C1=C(C)NC(C)=C(C(=O)OCCCNCC(O)COc2ccc(F)cc2C)C1c1cccc([N+](=O)[O-])c1` (stereo not drawn) [Example 42], the inhibition in vivo at 1 mg/kg in data set [1] (setting [3]) was 39%. Moreover, the Kb at rat dorsal aorta was 3.98 nM.
`CCOC(=O)C1=C(C)NC(C)=C(C(=O)OCCCNCC(O)COc2ccccc2C#N)C1c1cccc([N+](=O)[O-])c1` (stereo not drawn) [Example 43]: the Kb at rat dorsal aorta is 6.31 nM.
For `COC(=O)C1=C(C)NC(C)=C(C(=O)OCCCNCC(O)COc2ccccc2C)C1c1cccc([N+](=O)[O-])c1` (stereo not drawn) [Example 44, Methyl [3-[[3-(2-Methylphenoxy)-2-hydroxypropyl]-amino]propyl]1,4-Dihydro-2,6-dimethyl-4-(3-nitrophenyl)-3,5-pyridinedicarboxylate Hydrochloride], the IC50 on β-Receptor (setting [2]) stood at 10 nM. Moreover, in data set [1] (setting [3]), the inhibition in vivo at 1 mg/kg was 28%. For the same compound, the Kb on rat dorsal aorta is 10 to 15.8 nM.
For `CCC1=C(C(=O)OCC(C)(C)NCC(O)COc2ccc(CC(N)=O)cc2)C(c2cccc([N+](=O)[O-])c2)C(C(=O)OC)=C(C)N1` (stereo not drawn) [Example 45, [2-[3-[4-(Aminocarbonyl)methyl]phenoxy]-2-hydroxypropyl]amino]-2,2-dimethylethyl]^3 Methyl^5 2-Ethyl-1,4-dihydro-6-methyl-4-(3-nitrophenyl)-3,5-pyridinedicarboxylate Hemihydrate] the same measures were 420 nM, 33% and 6.31 nM.
Turning to `COC(=O)C1=C(C)NC(C)=C(C(=O)OCCNC(=S)NCCNCC(O)COc2ccccc2C)C1c1cccc([N+](=O)[O-])c1` (stereo not drawn) [Example 46], the inhibition in vivo at 1 mg/kg in data set [1] (setting [3]) came to 22%. Further, the Kb on rat dorsal aorta is 251 nM.
With `CCOC(=O)C1=C(C)NC(C)=C(C(=O)OCCc2ccc(OCC(O)CNC(C)C)cc2)C1c1cccc([N+](=O)[O-])c1` (stereo not drawn) [Example 54, Ethyl [2-[4-[3-[2-Hydroxy.(1-methylethyl)-amino]propoxy]phenyl]ethyl]1,4-Dihydro-2,6-dimethyl-4-(3-nitrophenyl)-3,5-pyridine dicarboxylate Hydrochloride Hydrate], on β-Receptor (setting [2]), the IC50 was 100 nM. In addition, in data set [1] (setting [3]), the inhibition in vivo at 1 mg/kg worked out at 57%. The Kb at rat dorsal aorta is 12.6 nM.
`CCOC(=O)C1=C(C)NC(C)=C(C(=O)OCCc2ccc(OCC(O)CNC(C)(C)C)cc2)C1c1cccc([N+](=O)[O-])c1` (stereo not drawn) [Example 55, Ethyl [2-[4-[3-[(1,1-dimethylethyl)amino]-2-hydroxypropoxy]phenyl]ethyl]1,4-Dihydro-2,6-dimethyl-4-(3-nitrophenyl)-3,5-pyridinedicarboxylate Hydrochloride Hemihydrate]: the “Lethality in vasodilation test” value in data set [1] (1.0 mg/kg) is reported as “Lethal at 1.0 mg/kg”. Moreover, the Kb on rat dorsal aorta was 12.6 nM.
With `CCOC(=O)C1=C(C)NC(C)=C(C(=O)OCCCC(=O)Nc2ccc(OCC(O)CNC(C)C)cc2)C1c1cccc([N+](=O)[O-])c1` (stereo not drawn) [Example 56, Ethyl [3-[[[4-[2-Hydroxy-3-[(1-methylethyl)amino]-propoxy]phenyl]amino]carbonyl]propyl]1,4-Dihydro-2,6-dimethyl-4-(3-nitrophenyl)-3,5-pyridinedicarboxylateHydrate], the IC50 at β-Receptor (setting [2]) is 620 nM. Moreover, the Kb at rat dorsal aorta is 10 nM.
For the compound `CCC1=C(C(=O)OCC(C)(C)NC(=O)Cc2ccc(OCC(O)CNC(C)C)cc2)C(c2cccc([N+](=O)[O-])c2)C(C(=O)OC)=C(C)N1` (stereo not drawn) [Example 57, [2-[4-[2-Hydroxy-3-[(1-methylethyl)amino]propoxy]-phenyl]methyl]carbonyI]amino]-2,2-dimethylethyl]^3 Methyl^5 2-Ethyl-1,4-dihydro-6-methyl-4-(3-nitrophenyl)-3,5-pyridinedicarboxylate Hemihydrate], at β-Receptor (setting [2]), the IC50 was greater than 1000 nM. For the same compound, the inhibition in vivo at 1 mg/kg in data set [1] (setting [3]) was 11%. On rat dorsal aorta, the Kb was 50.1 nM.
As to `COC(=O)C1=C(C)NC(C)=C(C(=O)OCCCNCC(O)COc2cccc3ccccc23)C1c1cccc([N+](=O)[O-])c1` (stereo not drawn) [Example 59], the “Calcium (pA2)” value at rat dorsal aorta stood at 7.3.
Still for that read-out and setting: the result for `COC(=O)C1=C(C)NC(C)=C(C(=O)OCCCNCC(O)COc2ccccc2C(F)(F)F)C1c1cccc([N+](=O)[O-])c1` (stereo not drawn) [Example 60] reads 7.2.
The same measure, in the same setting: the result for `COC(=O)C1=C(C)NC(C)=C(C(=O)OCCCNCC(O)COc2ccccc2C2CCCCC2)C1c1cccc([N+](=O)[O-])c1` (stereo not drawn) [Example 61] reads 7.6; that for `C=CCc1ccccc1OCC(O)CNCCCOC(=O)C1=C(C)NC(C)=C(C(=O)OC)C1c1cccc([N+](=O)[O-])c1` (stereo not drawn) [Example 62], 7.4.
`COC(=O)C1=C(C)NC(C)=C(C(=O)OCCCNCC(O)COc2cccc3c2CCCC3=O)C1c1cccc([N+](=O)[O-])c1` (stereo not drawn) [Example 63]: the “Calcium (pA2)” value at rat dorsal aorta worked out at 8.8.
`COC(=O)C1=C(C)NC(C)=C(C(=O)OC)C1c1ccccc1[N+](=O)[O-]` [Nifedipine, reference compound]: the IC50 on β-Receptor is greater than 1000 nM. Further, in data set [1] (Rattus norvegicus, 0.5 h, 30 minutes after dosing, at 0.1 mg/kg, read-out: Vasodilation, % reduction in mean arterial blood pressure), the inhibition in vivo at 0.1 mg/kg turned out to be 23%.
Regarding `CC(=O)Nc1ccc(OCC(O)CNC(C)C)cc1` (stereo not drawn) [Practolol, reference compound], the IC50 at β-Receptor (setting [2]) is 1000 nM.

These data come from US4994476A, “Dihydropyridin-3,5-dicarboxylates incorporating aryloxypropanolamine moieties” (Bristol-Myers Company, priority 1985, dated 1991).
